The target of experiment [1] is T1, COUP transcription factor 2 (Homo sapiens, UniProt P24468).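 Also: HEK293 cells transiently cotransfected with COUP-TFII expression vector and reporter; luciferase reporter luminescence driven by COUP-TFII from the pX2-168 reporter plasmid.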
T1 sequence (P24468 whole entry): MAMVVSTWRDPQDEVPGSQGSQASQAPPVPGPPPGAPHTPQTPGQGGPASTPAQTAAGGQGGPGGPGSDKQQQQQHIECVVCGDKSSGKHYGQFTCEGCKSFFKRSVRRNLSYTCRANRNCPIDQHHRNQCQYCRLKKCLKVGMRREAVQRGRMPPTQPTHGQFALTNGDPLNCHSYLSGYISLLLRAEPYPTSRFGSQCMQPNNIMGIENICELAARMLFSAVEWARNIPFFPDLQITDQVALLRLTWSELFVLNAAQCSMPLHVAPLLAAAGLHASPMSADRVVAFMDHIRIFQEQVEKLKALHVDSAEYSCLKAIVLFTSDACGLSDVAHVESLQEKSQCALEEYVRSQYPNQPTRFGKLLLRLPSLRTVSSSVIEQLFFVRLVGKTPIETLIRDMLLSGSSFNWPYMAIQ
Put plainly: Luminescence-based cell-based high throughput dose response assay to identify inhibitors of COUP-TFII (NR2F2). Type of experiment: functional.

The target in a further experiment is Protein Wnt-3a (Mus musculus, UniProt P27467). Put plainly: Wnt3a-driven reporter signaling inhibition, dose response, selectivity assay for Gli-SUFU antagonist project, Wnt-LIGHT cells, luminescence (AID 651570).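 Also: Wnt-LIGHT reporter cells stimulated with conditioned medium from Wnt3a-producing cells.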 The conditions noted are these: read-out: IC50_Mean. Type of experiment: functional.
Chain of Protein Wnt-3a (P27467 whole entry): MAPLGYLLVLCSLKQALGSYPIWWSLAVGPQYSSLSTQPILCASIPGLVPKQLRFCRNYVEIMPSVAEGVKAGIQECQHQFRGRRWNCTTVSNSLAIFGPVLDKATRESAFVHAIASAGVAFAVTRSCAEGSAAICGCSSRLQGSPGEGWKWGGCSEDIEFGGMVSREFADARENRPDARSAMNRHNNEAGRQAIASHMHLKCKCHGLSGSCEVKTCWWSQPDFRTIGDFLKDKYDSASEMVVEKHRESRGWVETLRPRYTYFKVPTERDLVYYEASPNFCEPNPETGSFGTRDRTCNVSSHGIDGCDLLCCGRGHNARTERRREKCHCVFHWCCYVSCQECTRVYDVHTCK
The nature of experiment [2]: control 3'UTR Renilla luciferase suppression, dose response, counter-screen for Shn3 inhibitor project, cell-based, Clone20-Shn3RL, cherry-picked (AID 624133). Type of experiment: functional. In general terms: A counterscreen serves to expose hits that act by an unwanted route or on another target.
The nature of experiment [3]: HepG2 cell cytotoxicity, dose response, cytotoxicity control for Shn3 inhibitor project, CellTiter-Glo, cherry-picked (AID 624134). Type of experiment: functional, cell-based. (In general: ATP-based viability assays read luminescence as a measure of living cells.)
A further experiment deals with INS1. Put plainly: beta cell apoptosis inhibitors, cytokine rescue, dose response, luminescence, retest (AID 449756).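 Also: cell death triggered by IL-1 beta plus TNF-alpha plus IFN-gamma mixture; protective hits raise ATP signal compared with cytokine alone wells.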 Type of experiment: functional, cell-based. Particulars: Rattus norvegicus.
Experiment [4] in a line: Shn3 3'UTR reporter inhibitors, dose response, cell-based, Clone20 osteoblasts, firefly luciferase, cherry-picked (AID 624132).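 Also: firefly luciferase luminescence from reporter carrying the Shn3 3'UTR in osteoblasts.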 Type of experiment: functional.
Experiment [5] in a line: Vero cell cytotoxicity, dose response, cytotoxicity control for Vif-APOBEC3G degradation inhibitor project, Vero cells (AID 1117358). Type of experiment: functional. The conditions noted are these: Human immunodeficiency virus 1, Vero.
Experiment [6] concerns BJ. Put plainly: cytotoxicity toward Ras-transformed BJeLR fibroblasts, dose response, cell-based, alamar blue fluorescence, cherrypicked samples (AID 2631).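 Also: confirmatory dose-response assay in RAS-dependent BJ fibroblasts engineered with TERT, LT and ST, with cytotoxicity read by fluorescence.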 Type of experiment: functional. The conditions noted are these: Homo sapiens. (In general: Alamar Blue is a resazurin reagent that responds to reducing activity.)
A short description of experiment [7]: cytotoxicity toward DRD oncogenic fibroblasts, dose response, cell-based, non-viral oncogenic, luminescence (AID 1934). Particulars: Homo sapiens. Type of experiment: functional.
The subject of experiment [8] is BJ. Put plainly: cytotoxicity toward BJ-TERT-LT-ST fibroblasts, dose response, cell-based, RAS-independent, luminescence (AID 1935).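 Also: BJ fibroblasts immortalized with TERT plus LT and ST oncogenes.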 Type of experiment: functional. Particulars: Homo sapiens.
Experiment [9] relates to BJ. Put plainly: cytotoxicity toward BJ-TERT fibroblasts, dose response, cell-based, RAS-independent, luminescence (AID 1933). Type of experiment: functional. Particulars: Homo sapiens.
Experiment [10] deals with BJ. Put plainly: cells. Type of experiment: functional, cell-based. The conditions noted are these: Homo sapiens.
In experiment [11] the target is G-protein coupled receptor 55 (Homo sapiens, UniProt Q9Y2T6). Put plainly: GPR55 agonists via beta-arrestin recruitment, primary screen, imaging, U2OS cells, beta-arrestin-GFP redistribution (AID 1961). Type of experiment: functional.
Chain of G-protein coupled receptor 55 (Q9Y2T6 whole entry): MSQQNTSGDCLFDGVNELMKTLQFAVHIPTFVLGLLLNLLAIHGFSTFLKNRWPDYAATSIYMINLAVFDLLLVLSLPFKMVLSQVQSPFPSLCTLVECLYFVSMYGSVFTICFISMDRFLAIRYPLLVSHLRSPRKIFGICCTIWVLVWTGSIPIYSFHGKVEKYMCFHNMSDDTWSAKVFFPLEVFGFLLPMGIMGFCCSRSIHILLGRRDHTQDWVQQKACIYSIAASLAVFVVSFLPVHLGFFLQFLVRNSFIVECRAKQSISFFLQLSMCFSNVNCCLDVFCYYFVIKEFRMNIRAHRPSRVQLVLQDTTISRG
A further experiment has as its target Cytochrome P450 2D6 (Homo sapiens, UniProt P10635).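 Also: CYP2D6 member of a cytochrome P450 panel assay.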
The nature of experiment [12]: MC4R antagonists, dose response, counter-screen for LGR2 antagonist project, cell-based, plate reader, cherry pick (AID 743444).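 Also: transfected HEK 293 cells stimulated with alpha-MSH peptide; potency of inhibitors of the alpha-MSH evoked signal.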 Type of experiment: functional.
Experiment [13] in a line: HepG2 cell cytotoxicity, dose response, cytotoxicity control, plate reader, cherry-pick, antagonist series (AID 743416). Type of experiment: functional, cell-based.
A short description of experiment [14]: LGR2 antagonists, dose response, cell-based, HEK293, CRE-luciferase reporter, cherry pick, set 2 (AID 743343).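 Also: transfected cells were stimulated with diluted bursicon conditioned medium after compound addition.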 Type of experiment: functional.
Experiment [15] can be described thus: A549 cell cytotoxicity, dose response, cytotoxicity control, plate reader, cherry-pick, antagonist series (AID 743412). Type of experiment: functional, cell-based.
The nature of experiment [16]: inhibitors of Vif binding to APOBEC3G peptide, primary screen, biochemical, TR-FRET, GST-Vif 1-94, biotin-A3G peptide, dose response retest (AID 1117319).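 Also: TR-FRET signal of purified GST-Vif binding a biotinylated A3G peptide; inhibitors lower the FRET signal by blocking Vif and A3G binding.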 Type of experiment: functional.
Experiment [17] can be described thus: HEK293 cell cytotoxicity, dose response, cytotoxicity control, plate reader, cherry-picked samples (AID 743446). Type of experiment: functional, cell-based.
A further experiment addresses T2, Leucine aminopeptidase (Plasmodium falciparum 3D7, UniProt Q8IL11).
T2 sequence (Q8IL11 whole entry): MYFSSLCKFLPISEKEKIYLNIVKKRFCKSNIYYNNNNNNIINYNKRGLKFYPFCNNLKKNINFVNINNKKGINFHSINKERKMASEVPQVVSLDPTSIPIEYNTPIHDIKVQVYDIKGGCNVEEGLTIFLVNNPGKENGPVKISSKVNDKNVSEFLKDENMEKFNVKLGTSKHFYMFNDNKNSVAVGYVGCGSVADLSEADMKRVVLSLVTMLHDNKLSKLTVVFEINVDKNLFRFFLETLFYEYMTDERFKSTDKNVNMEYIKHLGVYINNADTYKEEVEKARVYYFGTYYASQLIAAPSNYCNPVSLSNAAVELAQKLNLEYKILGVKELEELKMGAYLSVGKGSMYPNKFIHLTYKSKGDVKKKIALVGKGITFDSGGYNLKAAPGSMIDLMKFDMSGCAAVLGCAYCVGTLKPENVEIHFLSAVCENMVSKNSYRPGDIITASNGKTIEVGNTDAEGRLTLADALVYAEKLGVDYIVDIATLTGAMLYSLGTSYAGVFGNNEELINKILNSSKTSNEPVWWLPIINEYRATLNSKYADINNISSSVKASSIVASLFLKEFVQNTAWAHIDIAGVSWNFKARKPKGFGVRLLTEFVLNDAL
Put plainly: P. falciparum M17LAP inhibitors, primary screen, biochemical, fluorogenic H-Leu-NHMec substrate, 1536-well (AID 1619). Type of experiment: functional.

SMILES strings stand for the structures. Active and inactive are the calls of the source.

Chain of Cytochrome P450 2D6 (P10635 whole entry): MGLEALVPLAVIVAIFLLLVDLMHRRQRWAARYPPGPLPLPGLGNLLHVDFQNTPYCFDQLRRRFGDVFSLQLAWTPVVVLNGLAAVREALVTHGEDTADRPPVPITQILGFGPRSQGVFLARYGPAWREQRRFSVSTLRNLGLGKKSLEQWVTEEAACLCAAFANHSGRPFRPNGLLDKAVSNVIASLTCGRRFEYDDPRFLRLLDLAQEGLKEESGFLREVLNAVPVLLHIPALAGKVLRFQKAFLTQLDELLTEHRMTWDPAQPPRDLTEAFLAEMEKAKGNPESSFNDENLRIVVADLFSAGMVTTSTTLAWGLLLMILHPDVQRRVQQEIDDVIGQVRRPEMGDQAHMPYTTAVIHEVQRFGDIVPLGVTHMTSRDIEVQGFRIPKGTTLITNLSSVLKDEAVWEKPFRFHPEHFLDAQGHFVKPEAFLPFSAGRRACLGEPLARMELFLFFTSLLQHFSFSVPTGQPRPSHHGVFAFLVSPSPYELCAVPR

As to `CCc1ccc(CN(C)C(=O)c2cc(COc3cccc4cnccc34)on2)cc1`, the IC50 in experiment [1] was 7.5 µM (active); on Protein Wnt-3a, 4.25 µM (active). For the same compound, the concentration at half-maximal activity (AC50) in [2] is 13.5 µM (active); in [3], 3.23 µM (active); in the experiment on INS1 it was 3.27 µM (active); in [4], 1.92 µM (active).
As for `COc1ccccc1-n1cnc2cc(NCc3cccs3)ccc21`, the half-maximal cytotoxic concentration (CC50) in [5] was > 40 µM (active). In addition, the EC50 is 0.248 µM (active) in the experiment on BJ [6]; 4.55 µM (active) in experiment [7]; 11 µM (inconclusive) with BJ [8]; 8.39 µM (inconclusive) in the experiment with BJ [9]; 20.5 µM (active) in the experiment on BJ [10]; 2.87 µM (active) in [11].
As for `O=C(CNC(=O)/C(=C\c1ccccc1)NC(=O)c1ccc(Br)cc1)OCc1ccccc1`, the cytotoxic concentration (CC50) in [5] is > 40 µM (active). Moreover, the AC50 at Cytochrome P450 2D6 was 14.1 µM (inconclusive).
Regarding `COc1cc(C(=O)Oc2cccc(Nc3ncnc4ccccc34)c2)cc(OC)c1OC`, the CC50 in [5] was 35.2 µM (active). Moreover, the half-maximal activity concentration (AC50) in experiment [12] is 17.7 µM (active); in experiment [13], > 52 µM (inactive); in [14], 14.1 µM (active); in experiment [15], 51.4 µM (active); in experiment [17], > 52 µM (inactive). Also, the IC50 in experiment [16] is > 100 µM (active).
In the case of `CCOc1cc(/C=C(/C#N)c2ccc(F)cc2)ccc1OCc1ccc(C(=O)O)o1`, the IC50 on Leucine aminopeptidase was 23.6 µM (active).
Take `CN(C)C(=O)c1ccc(COc2ccccc2Br)o1`: the CC50 in experiment [5] was > 40 µM (active).

As usually defined, the AC50 is the midpoint of the concentration-response curve, whichever way the signal moves. Broadly, the CC50 is the concentration at which the toxic effect on the cells reaches its halfway point. What is called EC50 is the concentration at which the effect is half-maximal.

Values taken from ChEMBL document CHEMBL1201862, “PubChem BioAssay data set” (2004).
